≈ marks a conversion by molar mass, not a printed value.

Broadly, the MIC is the lowest concentration found to suppress growth.

One experiment concerns C. albicans. Briefly: Minimum Inhibitory Concentration (MIC) (C. albicans), CLSI M27-A2. To be noted: Candida albicans, 48 h, C. albicans; approximately 48 h at 35±1° C.; MIC = about 50% growth reduction, visual; read-out: Candida MIC Rating. In kind it is cell-based. On the procedure:
A. Minimum Inhibitory Concentration (MIC) (C. albicans) Compounds of the present disclosure were assessed for their ability to inhibit the growth of common strains of fungus, C. albicans using a standardized procedure (CLSI M27-A2). Stock solutions of the test compounds and standards were prepared in DMSO at 1,600 μg/mL (C. albicans). Eleven, serial, one-half dilutions of compounds were prepared in 96-well plates in RPMI+MOPS. The assay concentration ranges were 8-0.001 μg/mL (C. albicans). Cell suspensions of C. albicans were prepared and added to each well at concentrations of approximately 3.7×10^3 colony-forming-units per milliliter (cfu/mL). All testing was in duplicate. The inoculated plates were incubated for approximately 48 h at 35±1° C. At the completion of incubation the wells of each plate were evaluated visually for the presence of fungal growth. […] For QC purposes C. krusei isolate ATCC 6258 (4.0×10^3 cfu/mL) was included in the VOR assay.
Consider `CC(F)(c1ccc(-c2ccc(F)cc2)cn1)[C@](O)(Cn1cnnn1)c1ccc(F)cc1F` (stereo in doubt) [Example 50, 2-(2,4-Difluorophenyl)-3-fluoro-3-(5-(4-fluorophenyl)pyridin-2-yl)-1-(1H-tetrazol-1-yl)butan-2-ol], for which the MIC fell in the range of 1.5 to 4 µg/mL (≈ 3.38 to 9.02 µM).

As for `O=P(O)(O)OC(Cn1cnnn1)(c1ccc(F)cc1F)C(F)(F)c1ccc(-c2ccc(OCC(F)(F)F)cc2)cn1` (centres unmarked) [Example 58, 2-(2,4-difluorophenyl)-1,1-difluoro-3-(1H-tetrazol-1-yl)-1-(5-(4-(2,2,2-trifluoroethoxy)phenyl)pyridin-2-yl)propan-2-yl dihydrogen phosphate], the MIC is below 0.5 µg/mL.

The experiment is the same for the next values; noted with them: Candida albicans, 48 h; read-out: Candida MIC Rating.
With `OC(Cn1cnnn1)(c1ccc(F)cc1F)C(F)(F)c1ccc(-c2ccc(OCC(F)(F)C(F)(F)F)cc2)cn1` (centres unmarked) [Example 12, 2-(2,4-Difluorophenyl)-1,1-difluoro-1-(5-(4-(2,2,3,3,3-pentafluoropropoxy)phenyl)pyridin-2-yl)-3-(1H-tetrazol-1-yl)propan-2-ol], the MIC is below 0.5 µg/mL.

With `OC(Cc1cc[nH]n1)(c1ccc(F)cc1F)C(F)(F)c1ccc(-c2ccc(OC(F)(F)F)cc2)cn1` (centres unmarked) [Example 15, 2-(2,4-Difluorophenyl)-1,1-difluoro-3-(1H-pyrazol-3-yl)-1-(5-(4-(trifluoromethoxy)phenyl)-pyridin-2-yl)propan-2-ol], the MIC is below 0.5 µg/mL.

A further experiment relates to Septoria tritici (ATCC 26517). The experiment is described as follows: Minimum Inhibitory Concentration (MIC) (Septoria tritici), CLSI-based microdilution. In kind it is cell-based. To be noted: S. tritici ATCC 26517; seven days at 22° C. in the dark; MIC = 50% reduction in growth, visual. Here is the method: B. Minimum Inhibitory Concentration (MIC) (Septoria tritici)
Compounds of the present disclosure were assessed for their ability to inhibit the growth of a common strain of the fungal plant pathogen Septoria tritici (ATCC 26517) using a procedure based on a Clinical and Laboratory Standards Institute (CLSI) microdilution assay protocol for filamentous fungi.
Stock solutions of the test compounds and standards were prepared in DMSO at 6400 μg/mL. Each stock solution was used to prepare a 2-fold dilution series ranging from 16 to 0.016 μg/mL (total of 11 compound concentrations) in RPMI-1640 (Roswell Park Memorial Institute) medium containing 3-(N-morpholino)propanesulfonic acid (MOPS) buffer and 2% DMSO. A 100 μL aliquot of the dilutions was added to columns 1 (16 μg/mL compound) through 11 (0.016 μg/mL compound) of a 96-well microtiter plate. This format was replicated in a second row of the microtiter plate. Thus, each microtiter plate could include 11 concentrations of four test or control compounds replicated twice. A 100 μL aliquot of RPMI-1640/MOPS/2% DMSO medium was added to column 12 (no compound control) of the microtiter plate.
A fresh culture of S. tritici was used to prepare a solution of approximately 5×10^4 colony-forming units per milliliter (cfu/mL) in RPMI/MOPS medium without DMSO. A 100 μL aliquot of this solution was added to all 96 wells in the microtiter plate. […] The assay plates were incubated at 22° C. for seven days in the dark without shaking.
With `CC(F)(c1ccc(-c2ccc(OC(F)(F)F)cc2)cn1)C(O)(Cn1cnnn1)c1ccc(F)cc1F` (centres unmarked) [Example 47, 2-(2,4-Difluorophenyl)-3-fluoro-1-(1H-tetrazol-1-yl)-3-(5-(4-(trifluoromethoxy)phenyl)-pyridin-2-yl)butan-2-ol], the “Septoria MIC Rating” value was “B (>0.5-1.5)”.

The experiment is the same for the next values; noted with them: Zymoseptoria tritici, ATCC26517, 168 h, S. tritici ATCC 26517; seven days at 22° C. in the dark; MIC = 50% reduction in growth, visual; read-out: Septoria MIC Rating.
For `O=C(c1ccc(-c2ccc(C(F)(F)C(O)(Cn3cnnn3)c3ccc(F)cc3F)nc2)cc1)C(F)(F)F` (centres unmarked) [Example 33, 1-(4-(6-(2-(2,4-Difluorophenyl)-1,1-difluoro-2-hydroxy-3-(1H-tetrazol-1-yl)propyl)pyridin-3-yl)phenyl)-2,2,2-trifluoroethanone], the MIC was in the range of 0.5 to 1.5 µg/mL (≈ 0.952 to 2.86 µM).

Consider `OC(Cn1cnnn1)(c1ccc(Cl)cc1F)C(F)(F)c1ccc(-c2ccc(OC(F)(F)F)cc2)cn1` (centres unmarked) [Example 34, 2-(4-Chloro-2-fluorophenyl)-1,1-difluoro-3-(1H-tetrazol-1-yl)-1-(5-(4-(trifluoromethoxy)phenyl)pyridin-2-yl)propan-2-ol], for which the MIC was below 0.5 µg/mL.

In the case of `OC(Cn1cnnn1)(c1ccc(F)cc1F)C(F)(F)c1ccc(-c2ccccc2)cn1` (centres unmarked) [Example 35, 2-(2,4-Difluorophenyl)-1,1-difluoro-1-(5-phenylpyridin-2-yl)-3-(1H-tetrazol-1-yl)propan-2-ol], the MIC is below 0.5 µg/mL.

As to `OC(Cn1cnnn1)(c1ccc(F)cc1F)C(F)(F)c1ccc(-c2ccc(N3CCOCC3)cc2)cn1` (centres unmarked) [Example 36, 2-(2,4-Difluorophenyl)-1,1-difluoro-1-(5-(4-morpholinophenyl)pyridin-2-yl)-3-(1H-tetrazol-1-yl)propan-2-ol], the MIC is below 0.5 µg/mL.

Regarding `O=C(Nc1ccc(-c2ccc(C(F)(F)C(O)(Cn3cnnn3)c3ccc(F)cc3F)nc2)cc1)C(F)(F)F` (centres unmarked) [Example 37, N-(4-(6-(2-(2,4-Difluorophenyl)-1,1-difluoro-2-hydroxy-3-(1H-tetrazol-1-yl)propyl)pyridin-3-yl)phenyl)-2,2,2-trifluoroacetamide], the MIC is below 0.5 µg/mL.

With `OC(Cn1cnnn1)(c1ccc(F)cc1F)C(F)(F)c1ccc(-c2ccc(OC(F)F)cc2)cn1` (centres unmarked) [Example 38, 1-(5-(4-(Difluoromethoxy)phenyl)pyridin-2-yl)-2-(2,4-difluorophenyl)-1,1-difluoro-3-(1H-tetrazol-1-yl)propan-2-ol], the minimal inhibitory concentration (MIC) is below 0.5 µg/mL.

Take `OC(Cn1cnnn1)(c1ccc(F)cc1F)C(F)(F)c1ccc(-c2ccc(SC(F)F)cc2)cn1` (centres unmarked) [Example 40, 1-(5-(4-((Difluoromethyl)thio)phenyl)pyridin-2-yl)-2-(2,4-difluorophenyl)-1,1-difluoro-3-(1H-tetrazol-1-yl)propan-2-ol]: the MIC is below 0.5 µg/mL.

For the molecule `OC(Cn1cnnn1)(c1ccc(F)cc1F)C(F)(F)c1ccc(-c2ccc(CC(F)(F)F)cc2)cn1` (centres unmarked) [Example 41, 2-(2,4-Difluorophenyl)-1,1-difluoro-3-(1H-tetrazol-1-yl)-1-(5-(4-(2,2,2-trifluoroethyl)phenyl)pyridin-2-yl)propan-2-ol], the minimum inhibitory concentration (MIC) is below 0.5 µg/mL.

For `CNC(=O)c1ccc(-c2ccc(C(F)(F)C(O)(Cn3cnnn3)c3ccc(F)cc3F)nc2)cc1` (centres unmarked) [Example 42, 4-(6-(2-(2,4-Difluorophenyl)-1,1-difluoro-2-hydroxy-3-(1H-tetrazol-1-yl)propyl)pyridin-3-yl)-N-methylbenzamide], the MIC was above 4 µg/mL.

Consider `OC(Cn1cnnn1)(c1ccc(F)cc1F)C(F)(F)c1ccc(-c2ccc(OCCC(F)(F)F)cc2)cn1` (centres unmarked) [Example 44, 2-(2,4-Difluorophenyl)-1,1-difluoro-3-(1H-tetrazol-1-yl)-1-(5-(4-(3,3,3-trifluoropropoxy)phenyl)pyridin-2-yl)propan-2-ol], for which the MIC lay in the range of 0.5 to 1.5 µg/mL (≈ 0.923 to 2.77 µM).

For `OC(Cn1cnnn1)(c1ccc(F)cc1F)C(F)(F)c1ccc(-c2ccc(SCC(F)(F)F)cc2)cn1` (centres unmarked) [Example 45, 2-(2,4-Difluorophenyl)-1,1-difluoro-3-(1H-tetrazol-1-yl)-1-(5-(4-((2,2,2-trifluoroethyl)thio)phenyl)pyridin-2-yl)propan-2-ol], the MIC was below 0.5 µg/mL.

As to `CC(F)(c1ccc(-c2ccc(OC(F)(F)F)cc2)cn1)C(O)(Cn1cnnn1)c1ccc(F)cc1F` (centres unmarked) [Example 46, 2-(2,4-Difluorophenyl)-3-fluoro-1-(1H-tetrazol-1-yl)-3-(5-(4-(trifluoromethoxy)phenyl)-pyridin-2-yl)butan-2-ol], the MIC was below 0.5 µg/mL.

On to `CC(F)(c1ccc(-c2ccc(C(F)(F)F)cc2)cn1)C(O)(Cn1cnnn1)c1ccc(F)cc1F` (centres unmarked) [Example 53, 2-(2,4-Difluorophenyl)-3-fluoro-1-(1H-tetrazol-1-yl)-3-(5-(4-(trifluoromethyl)phenyl)pyridin-2-yl)butan-2-ol], for which the MIC is 1.5 to 4 µg/mL (≈ 3.04 to 8.11 µM).

Consider `CC(F)(c1ccc(-c2ccc(Cl)cc2)cn1)C(O)(Cn1cnnn1)c1ccc(F)cc1F` (centres unmarked) [Example 55, 3-(5-(4-Chlorophenyl)pyridin-2-yl)-2-(2,4-difluorophenyl)-3-fluoro-1-(1H-tetrazol-1-yl)butan-2-ol], for which the MIC lay within 1.5 to 4 µg/mL (≈ 3.26 to 8.7 µM).

For the molecule `CC(F)(c1ccc(-c2ccc(OCC(F)(F)F)cc2)cn1)C(O)(Cn1cnnn1)c1ccc(F)cc1F` (centres unmarked) [Example 57, 2-(2,4-Difluorophenyl)-3-fluoro-1-(1H-tetrazol-1-yl)-3-(5-(4-(2,2,2-trifluoroethoxy)phenyl)pyridin-2-yl)butan-2-ol], the MIC was 1.5 to 4 µg/mL (≈ 2.87 to 7.64 µM).

The values above are taken from patent US9414596B2, “Metalloenzyme inhibitor compounds” (Viamet Pharmaceuticals, Inc., priority 2012, dated 2016).
